Experimental findings from patent US9834525B2, “Inhibitors of paxillin function and related compositions and methods” (UNIVERSITY OF TENNESSEE RESEARCH FOUNDATION, priority 2015, dated 2017) are described below.

Structures are written as SMILES.

One assay concerns VLA-4. Briefly: VLA-4 protein levels by flow cytometry in UM cells. In kind it is cell-based, human. The settings on record: UM cells after treatment. As to the method:
Harvested cells were washed and counted. 1.0×10^6 cells were labeled with the following cell surface antibodies: FITC anti-CD54 (ICAM-1, clone HA58, BioLegend), PE anti-CD102 (ICAM-2, clone CBR-IC2/2, BioLegend), PE-Cy7 anti-CD49d (VLA-4, clone 9F10, BioLegend), APC anti-CD106 (VCAM-1, clone STA, BioLegend), PerCP-Cy5.5 anti-CD166 (ALCAM, clone 3A6, BioLegend), Biotin anti-CD326 (EpCAM, clone 1B7, BD Biosciences) using manufacturer's conditions. Cells were incubated in antibody cocktail for 30 minutes on ice followed by two washes with PBS/2% FBS. Second-labeling step was performed using Brilliant Violet 421 Streptavidin (bv421-SA, BioLegend) for 30 minutes on ice followed by two washes as before. […]
Next, it was investigated if reduced numbers were a consequence of a reduction in UM cells proliferation. Cell cultures in the presence or absence of compound (II-4) were analyzed by follow cytometry for cytoskeletal fragmentation and proliferation. […]
FIG. 15: The paxillin inhibitor Compound (II-4) selectively affects cellular proliferation of primary UM cells that become metastatic. […] Unlabeled cells were used to control fluorescence. […] B. Quantitation of experiment +/−SD including primary UM that becomes metastatic (Mel 270), metastatic (OMM 2.1) and primary (92.1) UM cells. *P=0.0007 and **P=0.0005. […] Quantitation of VLA-4 protein levels +/−SD from n=3. […]

For another assay, the system named is UM tumor cell lines. The assay is described as follows: Total cell numbers in UM cultures. The format is cell-based, human.

Consider `COc1cc(C2OC(=O)Nc3c2ccc2ccccc32)cc(OC)c1OC` (centres unmarked) [compound II-4], for which the VLA-4 protein levels result in the assay on VLA-4 is reported as “does not affect VLA-4 protein”. The “total cell numbers compared to untreated cultures” value with UM tumor cell lines is “reduction in total cell numbers”.
